We go through 17 molecules from patent publication US20210317102A1, “INHIBITORS OF INTEGRATED STRESS RESPONSE PATHWAY” (Praxis Biotech LLC, priority 2019, published 2021).

Test [1] deals with ATF4 expression, HEK293T cells carrying the ATF4 luciferase reporter. As to the kind of experiment: ATF4 expression inhibition assay (ATF4 luciferase reporter). In kind it is cell-based. The following applies: Homo sapiens, HEK-293T, 100 nM thapsigargin, 3 hours. Here is the method:
The ATF4 reporter was prepared by fusing the human full length 5′UTR of ATF4 (NCBI Accession No. BC022088.2) upstream of the firefly luciferase coding sequence lacking the initiator methionine. The fused sequence was cloned into pLenti-EFla-C-Myc-DDK-IRES-Puro cloning vector (Origen #PS100085) using standard methods. Virus production was carried out by using Lenti-X™ Packaging Single Shots Protocol (Clonetech #631276). Viral particles were used to transduce HEK293T cells (ATCC #CRL-3216, ATCC Manassas, Va.), which were subsequently selected with puromycin to generate stable cell line. Cells were maintained at 37° C. and 5% CO2 in DMEM-F12 (Hyclone #SH30023.02) supplemented with 10% heat-inactivated fetal bovine serum (Gibco #16000-044), 2 mM L-glutamine (Gibco #25030-081), 100 U/ml penicillin, and 100 μg/ml streptomycin (Gibco #^15140-122).
HEK293T cells carrying the ATF4 luciferase reporter were plated on 96-well plates (Nunc) at 10,000 cells per well. Cells were treated two days after seeding with 100 nM thapsigargin (Tg) (Sigma-Aldrich #T9033) in the presence of different concentrations of selected compounds ranging from 1 nM to 10 μM. Cells without treatment or cells treated with Tg alone were used as controls. Assay plates containing cells were incubated for 3 hours at 37° C.
Luciferase reactions were performed using Luciferase Assay System (Promega #E1501) as specified by the manufacturer. Luminescence was read with an integration time of 1 s and a gain of 110 using a Cytation-5 multi-mode microplate reader (BioTek). Relative luminescence units were normalized to Tg treatment (0% inhibition) and untreated cells (100% inhibition) and the percentage of ATF4 inhibition was calculated.
Accordingly, inhibition of ATF4 expression as a result of the test compound indicates suppression of the ISR pathway.
(In general: Reporter assays use an easily measured gene product as a stand-in for the process of interest.)

Test [2] concerns Chinese hamster ovary (CHO) cells. As to the kind of experiment: Protein synthesis assay (puromycin incorporation, western blot). The following applies: 2 hours, media alone = 100%; for activity at 1 µM: Cricetulus griseus, unstressed CHO cells (without Tg), 1 μM test compound, read-out: % Protein synthesis relative to untreated (1 μM test compound); for % Recovery of protein synthesis (1 μM test compound): stressed CHO cells, 300 nM Tg plus 1 μM test compound, Tg alone = 0%. In kind it is cell-based. Here is the method: Chinese hamster ovary (CHO) cells were maintained at 37° C. and 5% CO2 in Dulbecco's Modified Eagle's Media (DMEM) supplemented with 10% fetal bovine serum, 2 mM L-glutamine, 100 U/ml penicillin, and 100 μg/ml streptomycin. After reaching 80% of confluence, cells were detached and seeded on 6 well plates in complete media, allowed to recover overnight and treated for 2 hours with 1 μM of the test compound (to assess protein synthesis levels in unstressed condition), or for 2 hours with 300 nM Tg in the presence of 1 μM of the test compound (to assess the recovery of protein synthesis in a stressed condition). Cells with Tg alone were used as controls.
After the 2 hours treatments, media were replaced by adding 10 μg/ml puromycin (Sigma Aldrich #P8833) in complete media for 30 min. Media were removed and cells were lysed with SDS-PAGE lysis buffer. Lysates were transferred to 1.5 ml tubes and sonicated for 3 min and total protein amount were quantified using BCA Protein Assay Kit (Pierce). Equal amount of protein (30 μg) was loaded on SDS-PAGE gels. Proteins were transferred onto […] PVDF membranes (BioRad) and probed with primary antibodies diluted in Tris-buffered saline supplemented with 0.1% Tween 20 (Merck #S6996184 505) and 3% bovine serum albumin (Rockland #BSA-50).
Puromycin (12D10) (Merck #MABE343) and j-actin (Sigma Aldrich #A5441) antibodies were used as primary antibody. A HRP-conjugated secondary antibody (Rockland) was employed to detect immune-reactive bands using enhanced chemiluminescence (ECL Western Blotting Substrate, Pierce). Quantification of protein bands was done by densitometry using ImageJ software.
Percent increase of protein synthesis in unstressed cells (without Tg treatment) in the presence of media alone or certain test compounds is shown in Table 3. The percentage levels were normalized to the media alone condition, which correspond to 100% protein synthesis.
Percent recovery of protein synthesis in stressed cells (with Tg treatment) due to the test compounds at 1 μM is also shown in Table 3. The levels were normalized to the media alone and Tg alone conditions, which correspond to 100% and 0% respectively.

Usually IC50 stands for the concentration that gives 50% inhibition. Lower therefore signals greater potency in that assay. In test [1], `NC(COc1ccc(Cl)c(F)c1)CN1CCC(NC(=O)c2ccc3cc(Cl)ccc3n2)CC1` (centres unmarked) [Compound 1, N-(1-(2-amino-3-(4-chloro-3-fluorophenoxy)propyl)piperidin-4-yl)-6-chloroquinoline-2-carboxamide] came in with an IC50 of more than 1000 nM. Besides, in test [2], the activity at 1 µM was 167% and the “% Recovery of protein synthesis (1 μM test compound)” value (from here on “% Recovery of protein synthesis”) amounted to 233.4%.

With `O=C(COc1ccc(Cl)c(F)c1)NC1CC2CCC1CN2CC(O)COc1ccc(Cl)c(F)c1` (centres unmarked) [Compound 2, 2-(4-chloro-3-fluorophenoxy)-N-(2-(3-(4-chloro-3-fluorophenoxy)-2-hydroxypropyl)-2-azabicyclo[2.2.2]octan-5-yl)acetamide], the IC50 in test [1] was less than 1000 nM. In test [2], the activity at 1 µM amounted to 98.3% and the “% Recovery of protein synthesis” value was 252.0%.

In test [1], `O=C(COc1ccc(Cl)c(F)c1)N[C@H]1CC[C@H](NC(=O)c2nc3ccc(Cl)cc3[nH]2)CC1` [Compound 3, trans-6-chloro-N-(4-(2-(4-chloro-3-fluorophenoxy)acetamido)cyclohexyl)-1H-benzo[d]imidazole-2-carboxamide] showed an IC50 of less than 1000 nM. In test [2], the activity at 1 µM is 120% and the “% Recovery of protein synthesis” value is given as 109.9%.

On to `O=C(NC1CCN(CC(O)COc2ccc(Cl)c(F)c2)CC1)c1nc2ccc(Cl)cc2[nH]1` (centres unmarked) [Compound 4, 6-chloro-N-(1-(3-(4-chloro-3-fluorophenoxy)-2-hydroxypropyl)piperidin-4-yl)-1H-benzo[d]imidazole-2-carboxamide], for which the IC50 in test [1] was less than 1000 nM. In test [2], the activity at 1 µM was 164% and the “% Recovery of protein synthesis” value is reported as 246.6%.

On to `O=C(COc1ccc(Cl)c(F)c1)NCC1CCN(CC(O)COc2ccc(Cl)c(F)c2)CC1` (centres unmarked) [Compound 5, 2-(4-chloro-3-fluorophenoxy)-N-((1-(3-(4-chloro-3-fluorophenoxy)-2-hydroxypropyl)piperidin-4-yl)methyl)acetamide], for which the IC50 in test [1] is more than 1000 nM. In addition, in test [2], the activity at 1 µM amounted to 82.5% and the “% Recovery of protein synthesis” value is recorded as 71.9%.

For `O=C(NCC1CCN(CC(O)COc2ccc(Cl)c(F)c2)CC1)c1cc2cc(Cl)ccc2o1` (centres unmarked) [Compound 6, 5-chloro-N-((1-(3-(4-chloro-3-fluorophenoxy)-2-hydroxypropyl)piperidin-4-yl)methyl)benzofuran-2-carboxamide], the IC50 in test [1] was less than 1000 nM. In addition, the activity at 1 µM in test [2] is 179%.

For the molecule `O=C(NCC1CCN(CC(O)COc2ccc(Cl)c(F)c2)CC1)c1ccc2cc(Cl)ccc2n1` (centres unmarked) [Compound 7, 6-chloro-N-((1-(3-(4-chloro-3-fluorophenoxy)-2-hydroxypropyl)piperidin-4-yl)methyl)quinoline-2-carboxamide], the IC50 in test [1] was more than 1000 nM. In test [2], the activity at 1 µM was 114% and the “% Recovery of protein synthesis” value was 131.9%.

`O=C(N[C@H]1CC[C@H](NCC(O)COc2ccc(Cl)cc2)CC1)c1nc2ccc(Cl)cc2[nH]1` (stereo partly drawn) [Compound 8, trans-6-chloro-N-(4-((3-(4-chlorophenoxy)-2-hydroxypropyl)amino)cyclohexyl)-1H-benzo[d]imidazole-2-carboxamide]: in test [1], the 50% inhibitory concentration (IC50) is more than 1000 nM. In addition, in test [2], the activity at 1 µM turned out to be 175% and the “% Recovery of protein synthesis” value was found to be 128.3%.

Turning to `O=C(COc1ccc(Cl)c(F)c1)NC[C@H]1CC[C@H](NC(=O)COc2ccc(Cl)c(F)c2)CC1` [Compound 9, trans-2-(4-chloro-3-fluorophenoxy)-N-((4-(2-(4-chloro-3-fluorophenoxy)acetamido)cyclohexyl)methyl)acetamide], in test [1], the midpoint of inhibition, the IC50, lay at 72.4 nM. In test [2], the activity at 1 µM was 119% and the “% Recovery of protein synthesis” value worked out at 26.1%.

`O=C(COc1ccc(Cl)c(F)c1)NC[C@H]1CC[C@H](NC(=O)c2ccc3cc(Cl)ccc3n2)CC1` [Compound 12, trans-6-chloro-N-(4-((2-(4-chloro-3-fluorophenoxy)acetamido)methyl)cyclohexyl)quinoline-2-carboxamide] showed a half-maximal inhibitory concentration (IC50) in test [1] of 120 nM. Further, in test [2], the activity at 1 µM came out at 200% and the “% Recovery of protein synthesis” value is listed as 187.4%.

As for `O=C(COc1ccc(Cl)c(F)c1)NC[C@H]1CC[C@H](NC(=O)c2cc3cc(Cl)ccc3o2)CC1` [Compound 13, trans-5-chloro-N-(4-((2-(4-chloro-3-fluorophenoxy)acetamido)methyl)cyclohexyl)benzofuran-2-carboxamide], inhibition in test [1] was half-maximal at 19 nM (IC50). Also, in test [2], the activity at 1 µM stood at 129% and the “% Recovery of protein synthesis” value is given as 120.4%.

On to `O=C(COc1ccc(Cl)c(F)c1)NC[C@H]1CC[C@H](NCC(O)COc2ccc(Cl)c(F)c2)CC1` (stereo partly drawn) [Compound 14, trans-2-(4-chloro-3-fluorophenoxy)-N-((4-((3-(4-chloro-3-fluorophenoxy)-2-hydroxypropyl)amino)cyclohexyl)methyl)acetamide], for which the IC50 in test [1] is more than 10000 nM. For the same molecule, in test [2], the activity at 1 µM is 150% and the “% Recovery of protein synthesis” value was 53.2%.

For the molecule `O=C(COc1ccc(Cl)cc1)N[C@H]1CC[C@H](CNC(=O)c2cc3cc(Cl)ccc3o2)CC1` [Compound 15, trans-5-chloro-N-((4-(2-(4-chlorophenoxy)acetamido)cyclohexyl)methyl)benzofuran-2-carboxamide], the IC50 in test [1] came out at 1.45 nM. Also, in test [2], the activity at 1 µM was 204% and the “% Recovery of protein synthesis” value came out at 176.3%.

`COc1ccc2oc(C(=O)NC[C@H]3CC[C@H](NC(=O)COc4ccc(Cl)c(F)c4)CC3)cc2c1` [Compound 16, trans-N-((4-(2-(4-chloro-3-fluorophenoxy)acetamido)cyclohexyl)methyl)-5-methoxybenzofuran-2-carboxamide] had an IC50 in test [1] of 5.25 nM. In test [2], the activity at 1 µM was determined as 147% and the “% Recovery of protein synthesis” value is 102.4%.

Regarding `O=C(COc1ccc(Cl)c(F)c1)N[C@H]1CC[C@H](CNC(=O)c2ccc(Cl)cc2)CC1` [Compound 17, trans-4-chloro-N-((4-(2-(4-chloro-3-fluorophenoxy)acetamido)cyclohexyl)methyl)benzamide], the 50% inhibitory concentration (IC50) in test [1] stood at 2.36 nM. In test [2], the activity at 1 µM amounted to 96.5% and the “% Recovery of protein synthesis” value worked out at 49.5%.

Consider `O=C(COc1ccc(Cl)c(F)c1)N[C@H]1CC[C@H](CNC(=O)c2ccc(OC(F)(F)F)cc2)CC1` [Compound 18, trans-N-((4-(2-(4-chloro-3-fluorophenoxy)acetamido)cyclohexyl)methyl)-4-(trifluoromethoxy)benzamide], for which the 50% inhibitory concentration (IC50) in test [1] stood at 5.63 nM. Further, in test [2], the activity at 1 µM is 105% and the “% Recovery of protein synthesis” value is 60.0%.

In the case of `O=C(COc1ccc(Cl)c(F)c1)N[C@H]1CC[C@H](CNC(=O)c2ccc(Cl)cn2)CC1` [Compound 19, trans-5-chloro-N-((4-(2-(4-chloro-3-fluorophenoxy)acetamido)cyclohexyl)methyl)picolinamide], the concentration for half-maximal inhibition (IC50) in test [1] was 20.1 nM. In addition, in test [2], the activity at 1 µM is 131% and the “% Recovery of protein synthesis” value is 32.5%.
